Tests used:
[1] = test system: Human hepatic stellate cells HSC; assay: RT-PCR analysis of mRNA expression in human hepatic stellate cells cultured with Tβ4; assay type: cell-based
Procedure: Human hepatic stellate cells HSC were obtained from a liver cell mixture purchased from ADMET technologies after separation on an OptiPrep® Density Gradient Medium (Sigma). They were cultured until confluent and then plated at a density of 250,000 cells/60-mm dish and cultured in MEM supplemented with 10% bovine fetal serum, 1% non-essential amino acids and antibiotics. The cells were maintained in culture for approximately 48 hours and when semi-confluent they were serum-starved overnight using MEM supplemented with 1% albumin, antibiotics and 1% non-essential amino acids. RNA was extracted with Trizol (Invitrogen) and RT-PCR performed using primers. The expression of GAPDH was used as a control. All the experiments were performed in duplicate.
In many instances, the increase was dose dependent. […] The expression of another marker of HSC differentiation, namely PDGF-β receptor, was inhibited in a dose-dependent manner (75% with 1 μg/ml of Tβ4).

[2] = test system: Co-cultures of rat HSC and Human hepatocytes; assay: Co-cultures of rat HSC and human hepatocytes with Tβ4, hepatocyte count after one week; assay type: cell-based; conditions: greater than 100 ng/ml of Tβ4; one week in culture
Procedure: Hepatocyte Growth Factor (HGF) is a trophic factor for hepatocytes. […] Co-cultures of rat HSC and Human hepatocytes are prepared. Controls are incubated with the regular hormonally-defined medium used for hepatocytes. Experimental cultures receive greater than 100 ng/ml of Tβ4 in the same culture medium. Cells are harvested after one week using collagenase and trypsin. The hepatocytes are separated from the HSC by low speed centrifugation and the cells counted and used for total RNA extraction. […] The purity of the cell fractions are determined after staining with anti-human albumin antibodies (rat HSC are negative). RNA is used for RT-PCR and the expression of liver specific genes analyzed using human primers. Rat primers are used to determine the degree of contamination of rat HSC.

[3] = HSC cultured for 24 hours with different concentrations of Tβ4, RT-PCR, GAPDH control
[4] = HSC cultured for 24 hours, RT-PCR

thymosin beta 4 [Tβ4]
inhibition of expression of PDGF-β receptor ([1]; 1 μg/ml of Tβ4, HSC cultured for 24 hours, dose-dependent): 75%
increase in expression of HGF mRNA ([1]; 1 mg/ml of Tβ4, HSC cultured for 24 hours): 4 fold
increase in expression of GSK 3β mRNA [1, 3]: 2.5 fold
increase in expression of α-SMA mRNA [1, 3]: 4 fold
increase in expression of β-catenin mRNA [1, 3]: 3 fold
Tβ4 concentration giving maximal expression of α-SMA [1, 4]: 1 µg/mL
Tβ4 concentration giving maximal increase in β-catenin mRNA [1, 4]: 1 ng/mL
hepatocyte proliferation / number [2]: proliferate and increase in number

— patent publication US20100278934A1, “METHODS AND COMPOSITIONS FOR CONSERVING AND/OR PREPARING AN ORGAN OR TISSUE FOR TRANSPLANT” (Regenerx Biopharmaceuticals Inc., priority 2006, published 2010)
